Assay results from paper PMC8310135 (Viruses, 2021).
Where a name gives a salt, the structure may show the parent alone. Read-outs that look alike come from different tables or passages of the source.

What was measured:
[1] = system: rLUJV/ZsG; assay: microbe, parasite or virus in culture; assay type: cell-based, Lujo virus; conditions: for activity at 0.05 µM / activity at 0.5 µM / activity at 5 µM: Huh-7, read-out: Relative ZsG (%) Mean
[2] = system: Huh7 cells
[3] = in vitro; conditions: human; for CC50: CC50 (50% cell cytotoxicity concentration)
[4] = Mammarenavirus lujoense, 500 nM
[5] = Mammarenavirus lujoense, 5000 nM

Row | Compound | Relative ZsG (%) Mean ([1]; 50 nM) [%] | Relative ZsG (%) Mean ([1]; 500 nM) [%] | Relative ZsG (%) Mean ([1]; 5000 nM) [%] | Cell Viability (%) Mean ([2]; 50 nM) [%] | Cell Viability (%) Mean ([2]; 500 nM) [%] | Cell Viability (%) Mean ([2]; 5000 nM) [%] | activity at 0.05 µM ([1]; Mammarenavirus lujoense, 50 nM) [%] | activity at 0.5 µM [1, 4] [%] | activity at 5 µM [1, 5] [%] | viability at 0.05 µM [3] [%] | viability at 0.5 µM [3] [%] | viability at 5 µM [3] [%] | EC50 ([1]; Mammarenavirus lujoense, Huh-7, read-out: EC50 (concentration inhibiting ZsG expression by 50%)) [µM] | EC50 ([1]; read-out: EC50 (concentration inhibiting ZsG expression by 50%)) [µM] | CC50 [3] [µM]
1 | C#C[C@@]1(O)[C@H](O)[C@@H](CO)O[C@H]1n1ccc2c(N)ncnc21 [NITD008] | 122 | 110 | 136 | 99 | 96 | 97 |  |  |  |  |  |  |  |  | 
2 | [N-]=[N+]=Nc1cn([C@@H]2O[C@H](CO)[C@@H](O)[C@H]2O)c(=O)[nH]c1=O [5-azidouridine] |  |  |  |  |  |  | 121 | 119 | 113 | 104 | 100 | 104 |  |  | 
3 | CC(C)OC(=O)[C@H](C)N[P@](=O)(OC[C@H]1O[C@@H](n2ccc(=O)[nH]c2=O)[C@](C)(F)[C@@H]1O)Oc1ccccc1 [PSI-7977] |  |  |  |  |  |  | 119 | 95 | 118 | 101 | 97 | 104 |  |  | 
4 | O=c1[nH]c(=O)n([C@@H]2O[C@H](CO)[C@@H](O)[C@H]2O)cc1Cl [5-chlorouridine] |  |  |  |  |  |  | 122 | 142 | 103 | 100 | 103 | 99 |  |  | 
5 | CN[C@H]1CC[C@@H](c2ccc(Cl)c(Cl)c2)c2ccccc21 [Sertraline] |  |  |  |  |  |  | 80 | 69 | 35 | 122 | 128 | 107 |  |  | 
6 | N#CC1(c2ccc(NC(=O)c3cccnc3NCc3ccncc3)cc2)CCCC1 [Apatinib] |  |  |  |  |  |  | 91 | 67 | 47 | 113 | 119 | 95 |  |  | 
7 | CC(C)/N=c1\cc2n(-c3ccc(Cl)cc3)c3ccccc3nc-2cc1Nc1ccc(Cl)cc1 [Clofazimine] |  |  |  |  |  |  | 88 | 75 | 52 | 120 | 125 | 102 |  |  | 
8 | CN1[C@@H]2CC[C@H]1C[C@@H](OC(c1ccccc1)c1ccccc1)C2 [Benztropine mesylate] |  |  |  |  |  |  | 110 | 90 | 36 | 126 | 130 | 108 | 5.14 ± 1.52 | 5.14 ± 1.52 | > 25
9 | O=c1[nH]c(=O)n([C@@H]2O[C@H](CO)[C@@H](O)[C@H]2O)cc1F [5-fluorouridine] |  |  |  |  |  |  | 94 | 51 | 19 | 97 | 100 | 103 |  |  | 
10 | CO[C@@H]1[C@H](O)[C@@H](CO)O[C@H]1n1ccc(N)nc1=O [2ʹ-O-methylcytidine] |  |  |  |  |  |  | 118 | 127 | 114 | 98 | 103 | 100 |  |  | 
11 | O=c1cnn([C@@H]2O[C@H](CO)[C@@H](O)[C@H]2O)c(=S)[nH]1 [6-aza-2-thiouridine] |  |  |  |  |  |  | 134 | 139 | 112 | 104 | 96 | 103 |  |  | 
12 | Nc1nc(Cl)nc2c1ncn2[C@@H]1O[C@H](CO)[C@@H](O)[C@H]1O [2-chloroadenosine] |  |  |  |  |  |  | 124 | 133 | 99 | 98 | 105 | 103 |  |  | 
13 | CCOC(=O)C1=C(C)NC(C)=C(C(=O)OCC)C1c1ccccc1/C=C/C(=O)OC(C)(C)C [Lacidipine] |  |  |  |  |  |  | 90 | 90 | 47 | 138 | 129 | 98 |  |  | 
14 | CC(C)(C)C(=O)OCOP(=O)(COCCn1cnc2c(N)ncnc21)OCOC(=O)C(C)(C)C [Adefovir dipivoxil] |  |  |  |  |  |  | 70 | 38 | 24 | 123 | 94 | 54 |  |  | 
15 | COc1c(-c2ccc3cc(NS(C)(=O)=O)ccc3c2)cc(-n2ccc(=O)[nH]c2=O)cc1C(C)(C)C [ABT-333] |  |  |  |  |  |  | 131 | 111 | 129 | 99 | 96 | 104 |  |  | 
16 | Cc1cn([C@H]2C[C@H](N=[N+]=[N-])[C@@H](CO)O2)c(=O)[nH]c1=O [Zidovudine] |  |  |  |  |  |  | 99 | 88 | 92 | 97 | 105 | 93 |  |  | 
17 | C[C@@]1(O)[C@H](O)[C@@H](CO)O[C@H]1n1ccc(=O)[nH]c1=O [2ʹ-C-methyluridine] |  |  |  |  |  |  | 132 | 142 | 126 | 102 | 100 | 97 |  |  | 
18 | Clc1ccc(COC(Cn2ccnc2)c2ccc(Cl)cc2Cl)c(Cl)c1 (stereo not shown) [Miconazole nitrate] |  |  |  |  |  |  | 65 | 78 | 47 | 119 | 120 | 67 |  |  | 
19 | CN(C)CCCN1c2ccccc2CCc2ccc(Cl)cc21 [Clomipramine HCL] |  |  |  |  |  |  | 129 | 103 | 12 | 97 | 97 | 98 |  |  | 
20 | Cc1cn([C@H]2C=C[C@@H](CO)O2)c(=O)[nH]c1=O [Stavudine] |  |  |  |  |  |  | 125 | 104 | 96 | 101 | 98 | 103 |  |  | 
21 | Cc1ccc(NC(=O)c2ccc(CN3CCN(C)CC3)cc2)cc1Nc1nccc(-c2cccnc2)n1 [Gleevec] |  |  |  |  |  |  | 95 | 113 | 56 | 101 | 96 | 96 |  |  | 
22 | [N-]=[N+]=Nc1nc2c(N)ncnc2n1[C@@H]1O[C@H](CO)[C@@H](O)[C@H]1O [8-azidoadenosine] |  |  |  |  |  |  | 90 | 72 | 6 | 104 | 87 | 32 |  |  | 
23 | N#Cc1cn([C@@H]2O[C@H](CO)[C@@H](O)[C@H]2O)c2ncnc(N)c12 [Toyocamycin] |  |  |  |  |  |  | 69 | 12 | 7 | 97 | 64 | 23 |  |  | 
24 | CCCCc1oc2ccccc2c1C(=O)c1cc(I)c(OCCN(CC)CC)c(I)c1 [Amiodarone] |  |  |  |  |  |  | 80 | 60 | 3 |  |  |  |  |  | 13.6 ± 1.51
25 | CO[C@@H]1[C@H](O)[C@@H](CO)O[C@H]1n1ccc(=O)[nH]c1=O [2ʹ-O-methyluridine] |  |  |  |  |  |  | 122 | 130 | 110 | 97 | 100 | 96 |  |  | 
26 | COc1cc2ncnc(Nc3ccc(F)c(Cl)c3)c2cc1OCCCN1CCOCC1 [Gefitinib] |  |  |  |  |  |  | 77 | 71 | 48 | 128 | 121 | 101 |  |  | 
